In patent US11564912B2, “Methods for treating irritable bowel syndrome (IBS)” (Salix Pharmaceuticals, Inc., priority 2008, dated 2023):

System: subjects with dIBS
Assay: Study of rifaximin BID in subjects with dIBS: adequate relief of IBS symptoms and bloating
Assay type: in vivo, human
Conditions: for Percentage of Subjects with Number of Weeks with Adequate Relief of Bloating Symptoms / Percentage of Subjects with Number of Weeks with Adequate Relief of IBS Symptoms: RFX 550 mg BID, N = 191, ITT
Procedure: This example relates to a study of rifaximin in subjects with dIBS. […] There were two measures of efficacy assessed. Subjects were questioned on the relief of overall IBS symptoms and bloating. […] The analyses defined success as a “yes” response to questions regarding adequate relief.
All subpopulations in the study responded to therapy. Baseline severity was determined using 7-point Lickert scales during screening for Abdominal Pain/Discomfort and Bloating, and the number, type (normal, hard, loose) and urgency of bowel movements.
Duration of effect was assessed in a follow-up period. Subjects that responded in the 4 week treatment period were followed for an additional 3 months.
The effect of treatment on the percentage of subjects who reported adequate relief of IBS and bloating symptoms for at least two of the final three weeks during the treatment phase (Weeks 1 to 4) is shown in Tables 3-5 and FIGS. 4-6 below.
Two measures of efficacy were assessed independently. The first was the proportion of subjects who provided a ‘yes’ response to the weekly SGA question: “In the past 7 days, have you had adequate relief of your IBS symptoms? (yes/no)”. The second endpoint was the proportion of subjects who provide a ‘yes’ response to the weekly individual symptom question: “In the past 7 days, have you had adequate relief of your symptom of bloating? (yes/no)”. Durability was based on the proportion of subjects that had adequate relief over the entire treatment phase.
It is reported herein that the severity of baseline symptoms of abdominal pain and bloating influenced the response to rifaximin treatment. The co-primary endpoints in this analysis assessed weekly yes/no responses to questions regarding adequate relief of global IBS symptoms and IBS-associated bloating. Severity of baseline IBS symptoms was evaluated as a potential confounder of clinical response and was categorized as mild/moderate or severe based on a mean score of ≤4 vs. >4 (on a 7-point scale) for bloating and abdominal pain.
The Weekly yes/no responses to questions regarding adequate relief of global IBS symptoms and IBS-associated bloating were assessed. Clinical response was defined as adequate relief for 2 of the final 3 treatment weeks (wk 2, 3, or 4). Severity of baseline IBS symptoms was evaluated as a potential confounder of clinical response and was categorized as mild/moderate or severe based on a mean score of ≤4 versus >4 (on a 7-point scale (0=not bothersome; 6=very bothersome)) for bloating and abdominal pain.

(2S,16Z,18E,20S,21S,22R, 23R,24R,25S,26S,27S,28E)-5,6,21,23,25 Pentahydroxy-27-methoxy -2,4,11,16,20,22,24,26-octamethyl-2,7-(epoxypentadeca-(1,11,13)trienimino)benzofuro (4,5-e) pyrido(1,2,-a) benzimidazole-1,15(2H)-dione,25-acetate [Rifaximin]
Percentage of Subjects with Number of Weeks with Adequate Relief of Bloating Symptoms (0 weeks): 35%
Percentage of Subjects with Number of Weeks with Adequate Relief of IBS Symptoms (0 weeks): 33%
Adequate relief of IBS related symptoms (SGA) and IBS-related bloating (IBS-B) (550 mg BID for 2 weeks): statistically significant relief
Percentage of Subjects with Number of Weeks with Adequate Relief of Bloating Symptoms (1 week): 14%
Percentage of Subjects with Number of Weeks with Adequate Relief of IBS Symptoms (1 week): 11%
Percentage of Subjects with Number of Weeks with Adequate Relief of Bloating Symptoms (2 weeks): 15%
Percentage of Subjects with Number of Weeks with Adequate Relief of IBS Symptoms (2 weeks): 15%
Percentage of Subjects with Number of Weeks with Adequate Relief of Bloating Symptoms (3 weeks): 20%
Percentage of Subjects with Number of Weeks with Adequate Relief of IBS Symptoms (3 weeks): 23%
Percentage of Subjects with Number of Weeks with Adequate Relief of Bloating Symptoms (4 weeks): 14%
Percentage of Subjects with Number of Weeks with Adequate Relief of IBS Symptoms (4 weeks): 16%
Treatment effect (Bloating) (Age <65): 6.8%
Treatment effect (IBS Sx) (Age <65): 6.9%
Treatment effect (Bloating) (Age ≥65): 3.2%
Treatment effect (IBS Sx) (Age ≥65): 19.1%
Treatment effect (Bloating) (Diabetes History: N): 7.4%
Treatment effect (IBS Sx) (Diabetes History: N): 9.5%
Treatment effect (Bloating) (Diabetes History: Y): −5.6%
Treatment effect (IBS Sx) (Diabetes History: Y): −12.7%
Treatment effect (Bloating) (Disease Duration: 10-20 y): 11.7%
Treatment effect (IBS Sx) (Disease Duration: 10-20 y): 20.1%
Treatment effect (Bloating) (Disease Duration: >20 y): 35.1%
Treatment effect (IBS Sx) (Disease Duration: >20 y): 46.6%
Treatment effect (Bloating) (Disease Duration: ≤10 y): 2.8%
Treatment effect (IBS Sx) (Disease Duration: ≤10 y): 1.8%
Adequate Relief of Bloating at the End of the Treatment Phase: Failure (Female, RFX 275 2 w (N = 95)): 52 (64.2%) n (%)
Adequate Relief of Bloating at the End of the Treatment Phase: Success (Female, RFX 275 2 w (N = 95)): 29 (35.8%) n (%)
Adequate Relief of IBS Symptoms at the End of the Treatment Phase: Failure (Female, RFX 275 2 w (N = 95)): 46 (56.8%) n (%)
Adequate Relief of IBS Symptoms at the End of the Treatment Phase: Success (Female, RFX 275 2 w (N = 95)): 35 (43.2%) n (%)
Adequate Relief of Bloating at the End of the Treatment Phase: Failure (Female, RFX 550 2 w (N = 99)): 45 (61.6%) n (%)
Adequate Relief of Bloating at the End of the Treatment Phase: Success (Female, RFX 550 2 w (N = 99)): 28 (38.4%) n (%)
Adequate Relief of IBS Symptoms at the End of the Treatment Phase: Failure (Female, RFX 550 2 w (N = 99)): 44 (60.3%) n (%)
Adequate Relief of IBS Symptoms at the End of the Treatment Phase: Success (Female, RFX 550 2 w (N = 99)): 29 (39.7%) n (%)
Adequate Relief of Bloating at the End of the Treatment Phase: Failure (Female, RFX 550 2 w (N = 191)): 74 (54.0%) n (%)
Adequate Relief of Bloating at the End of the Treatment Phase: Success (Female, RFX 550 2 w (N = 191)): 63 (46.0%) n (%)
Adequate Relief of IBS Symptoms at the End of the Treatment Phase: Failure (Female, RFX 550 2 w (N = 191)): 66 (48.2%) n (%)
Adequate Relief of IBS Symptoms at the End of the Treatment Phase: Success (Female, RFX 550 2 w (N = 191)): 71 (51.8%) n (%)
odds ratio, Adequate Relief of Bloating at the End of the Treatment Phase (Female, RFX 550 2 w vs. PBO): Comparison of RFX 550 2 w vs. PBO p-value: 0.5366, odds ratio: 1.166 (0.716, 1.898)
odds ratio, Adequate Relief of IBS Symptoms at the End of the Treatment Phase (Female, RFX 550 2 w vs. PBO): Comparison of RFX 550 2 w vs. PBO p-value: 0.7608, odds ratio: 1.078 (0.665, 1.747)
Adequate Relief of Bloating at the End of the Treatment Phase: Failure (Female, RFX 550 4 w (N = 98)): 44 (57.9%) n (%)
Adequate Relief of Bloating at the End of the Treatment Phase: Success (Female, RFX 550 4 w (N = 98)): 32 (42.1%) n (%)
Adequate Relief of IBS Symptoms at the End of the Treatment Phase: Failure (Female, RFX 550 4 w (N = 98)): 42 (55.3%) n (%)
Adequate Relief of IBS Symptoms at the End of the Treatment Phase: Success (Female, RFX 550 4 w (N = 98)): 34 (44.7%) n (%)
Treatment effect (Bloating) (Gender: F): 3.9%
Treatment effect (IBS Sx) (Gender: F): 3.5%
Treatment effect (Bloating) (Gender: M): 13.6%
Treatment effect (IBS Sx) (Gender: M): 21%
Adequate Relief of Bloating at the End of the Treatment Phase: Failure (Male, RFX 275 2 w (N = 95)): 8 (57.1%) n (%)
Adequate Relief of Bloating at the End of the Treatment Phase: Success (Male, RFX 275 2 w (N = 95)): 6 (42.9%) n (%)
Adequate Relief of IBS Symptoms at the End of the Treatment Phase: Failure (Male, RFX 275 2 w (N = 95)): 9 (64.3%) n (%)
Adequate Relief of IBS Symptoms at the End of the Treatment Phase: Success (Male, RFX 275 2 w (N = 95)): 5 (35.7%) n (%)
Adequate Relief of Bloating at the End of the Treatment Phase: Failure (Male, RFX 550 2 w (N = 99)): 16 (61.5%) n (%)
Adequate Relief of Bloating at the End of the Treatment Phase: Success (Male, RFX 550 2 w (N = 99)): 10 (38.5%) n (%)
Adequate Relief of IBS Symptoms at the End of the Treatment Phase: Failure (Male, RFX 550 2 w (N = 99)): 14 (53.8%) n (%)
Adequate Relief of IBS Symptoms at the End of the Treatment Phase: Success (Male, RFX 550 2 w (N = 99)): 12 (46.2%) n (%)
Adequate Relief of Bloating at the End of the Treatment Phase: Failure (Male, RFX 550 2 w (N = 191)): 29 (53.7%) n (%)
Adequate Relief of Bloating at the End of the Treatment Phase: Success (Male, RFX 550 2 w (N = 191)): 25 (46.3%) n (%)
Adequate Relief of IBS Symptoms at the End of the Treatment Phase: Failure (Male, RFX 550 2 w (N = 191)): 25 (46.3%) n (%)
